Literature values, collected in article PMC8302504, “Efficacy of Fenfluramine and Norfenfluramine Enantiomers and Various Antiepileptic Drugs in a Zebrafish Model of Dravet Syndrome” (Neurochemical Research, 2021).

Settings: 5 dpf zebrafish larvae, 1 h incubation with 15 µg/mL; cited from earlier work

For `O=C(CCCN1CCC(O)(c2ccc(Cl)cc2)CC1)c1ccc(F)cc1` [haloperidol], the “head uptake (recovered concentration)” value is given as 21.6 µg/g.
